Reference: PMC3961306, “Comparison of the Cancer Gene Targeting and Biochemical Selectivities of All Targeted Kinase Inhibitors Approved for Clinical Use” (PLoS ONE, 2014)

Experiments:
Assay in all cases: Kinase profiling in a biochemical assay panel (mobility shift assays and ELISA), %-inhibition at 1 μM; selectivity entropy
[1] = molecular target: panel of more than 300 wild-type and mutant kinases (313 kinase panel) (Homo sapiens, UniProt P07949, M918T)
[2] = molecular target: T1, panel of more than 300 wild-type and mutant kinases (313 kinase panel) (Homo sapiens, UniProt Q05513)
T1 sequence (Q05513 1-592): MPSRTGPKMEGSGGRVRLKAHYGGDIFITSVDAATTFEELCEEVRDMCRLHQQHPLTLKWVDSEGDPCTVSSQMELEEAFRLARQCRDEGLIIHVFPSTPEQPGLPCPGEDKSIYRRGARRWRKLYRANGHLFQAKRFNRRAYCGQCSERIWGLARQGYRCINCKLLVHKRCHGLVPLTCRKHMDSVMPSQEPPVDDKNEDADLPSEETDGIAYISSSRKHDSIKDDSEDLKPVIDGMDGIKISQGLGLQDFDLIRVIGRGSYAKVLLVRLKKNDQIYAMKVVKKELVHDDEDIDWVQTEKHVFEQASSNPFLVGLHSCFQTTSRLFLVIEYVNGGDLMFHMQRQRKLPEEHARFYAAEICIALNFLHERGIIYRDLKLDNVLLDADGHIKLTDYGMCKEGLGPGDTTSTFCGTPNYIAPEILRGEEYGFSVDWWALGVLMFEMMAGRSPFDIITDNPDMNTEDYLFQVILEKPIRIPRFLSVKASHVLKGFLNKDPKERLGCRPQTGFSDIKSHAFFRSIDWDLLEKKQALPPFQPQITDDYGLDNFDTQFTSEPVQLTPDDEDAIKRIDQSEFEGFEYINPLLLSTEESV

[3] = molecular target: T2, panel of more than 300 wild-type and mutant kinases (313 kinase panel) (Homo sapiens, UniProt Q14164)
T2 sequence (Q14164 1-716): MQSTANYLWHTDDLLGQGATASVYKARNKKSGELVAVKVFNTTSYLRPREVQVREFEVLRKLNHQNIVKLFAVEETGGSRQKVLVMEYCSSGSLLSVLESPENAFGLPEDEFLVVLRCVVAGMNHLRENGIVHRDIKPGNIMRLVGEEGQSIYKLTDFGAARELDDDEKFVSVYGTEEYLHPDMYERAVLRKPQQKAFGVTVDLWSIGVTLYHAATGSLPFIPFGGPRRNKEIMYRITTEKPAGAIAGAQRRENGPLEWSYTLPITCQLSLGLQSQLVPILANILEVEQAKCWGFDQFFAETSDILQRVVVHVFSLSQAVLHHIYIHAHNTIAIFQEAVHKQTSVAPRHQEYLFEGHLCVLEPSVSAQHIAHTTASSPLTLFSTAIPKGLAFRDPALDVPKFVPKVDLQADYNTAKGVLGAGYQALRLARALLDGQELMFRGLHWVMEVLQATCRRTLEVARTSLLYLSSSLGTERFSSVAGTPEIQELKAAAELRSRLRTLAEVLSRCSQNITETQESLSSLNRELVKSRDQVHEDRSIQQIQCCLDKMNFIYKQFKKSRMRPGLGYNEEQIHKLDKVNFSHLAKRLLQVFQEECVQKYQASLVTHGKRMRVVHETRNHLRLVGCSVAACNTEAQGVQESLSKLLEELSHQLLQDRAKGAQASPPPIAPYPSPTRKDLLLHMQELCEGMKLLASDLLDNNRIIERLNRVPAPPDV

[4] = molecular target: panel of more than 300 wild-type and mutant kinases (313 kinase panel) (Homo sapiens, UniProt Q16816)
panel of more than 300 wild-type and mutant kinases (313 kinase panel) (Homo sapiens, UniProt Q16816), sequence (Q16816 whole entry, change not shown): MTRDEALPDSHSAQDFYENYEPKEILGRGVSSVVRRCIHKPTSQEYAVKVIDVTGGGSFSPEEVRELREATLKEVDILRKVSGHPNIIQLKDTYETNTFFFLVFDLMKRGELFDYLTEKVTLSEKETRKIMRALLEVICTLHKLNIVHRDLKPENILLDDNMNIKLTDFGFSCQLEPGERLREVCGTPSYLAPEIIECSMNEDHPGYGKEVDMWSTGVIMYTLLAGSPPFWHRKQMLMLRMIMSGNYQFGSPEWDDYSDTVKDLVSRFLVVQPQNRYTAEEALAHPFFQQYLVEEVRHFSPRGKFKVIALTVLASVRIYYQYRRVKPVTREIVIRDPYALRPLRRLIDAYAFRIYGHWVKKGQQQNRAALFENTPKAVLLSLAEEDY

[5] = molecular target: panel of more than 300 wild-type and mutant kinases (313 kinase panel) (Homo sapiens, UniProt Q9P1W9)
[6] = molecular target: panel of more than 300 wild-type and mutant kinases (313 kinase panel) (Homo sapiens, UniProt Q5VT25)
[7] = molecular target: panel of more than 300 wild-type and mutant kinases (313 kinase panel) (Homo sapiens, UniProt Q9H2G2)
[8] = molecular target: T3, panel of more than 300 wild-type and mutant kinases (313 kinase panel) (Homo sapiens, UniProt Q8NE63)
T3 sequence (Q8NE63 1-616): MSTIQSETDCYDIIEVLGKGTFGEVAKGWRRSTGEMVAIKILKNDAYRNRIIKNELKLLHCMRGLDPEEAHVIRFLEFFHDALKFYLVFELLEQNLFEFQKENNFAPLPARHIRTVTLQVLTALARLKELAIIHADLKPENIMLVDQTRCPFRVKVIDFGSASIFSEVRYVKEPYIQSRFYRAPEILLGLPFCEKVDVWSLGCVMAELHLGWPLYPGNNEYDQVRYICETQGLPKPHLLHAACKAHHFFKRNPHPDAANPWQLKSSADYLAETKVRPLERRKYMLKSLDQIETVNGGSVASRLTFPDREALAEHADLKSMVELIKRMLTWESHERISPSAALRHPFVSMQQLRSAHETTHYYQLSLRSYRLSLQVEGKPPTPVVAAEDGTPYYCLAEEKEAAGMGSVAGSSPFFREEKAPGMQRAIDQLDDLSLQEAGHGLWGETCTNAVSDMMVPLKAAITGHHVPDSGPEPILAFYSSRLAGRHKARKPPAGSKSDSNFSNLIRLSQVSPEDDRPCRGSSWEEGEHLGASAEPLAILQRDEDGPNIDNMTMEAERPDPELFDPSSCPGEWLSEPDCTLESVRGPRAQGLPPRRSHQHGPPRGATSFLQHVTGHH

panel of more than 300 wild-type and mutant kinases (313 kinase panel) (Homo sapiens, UniProt P07949, M918T), sequence (P07949 29-1114 M918T): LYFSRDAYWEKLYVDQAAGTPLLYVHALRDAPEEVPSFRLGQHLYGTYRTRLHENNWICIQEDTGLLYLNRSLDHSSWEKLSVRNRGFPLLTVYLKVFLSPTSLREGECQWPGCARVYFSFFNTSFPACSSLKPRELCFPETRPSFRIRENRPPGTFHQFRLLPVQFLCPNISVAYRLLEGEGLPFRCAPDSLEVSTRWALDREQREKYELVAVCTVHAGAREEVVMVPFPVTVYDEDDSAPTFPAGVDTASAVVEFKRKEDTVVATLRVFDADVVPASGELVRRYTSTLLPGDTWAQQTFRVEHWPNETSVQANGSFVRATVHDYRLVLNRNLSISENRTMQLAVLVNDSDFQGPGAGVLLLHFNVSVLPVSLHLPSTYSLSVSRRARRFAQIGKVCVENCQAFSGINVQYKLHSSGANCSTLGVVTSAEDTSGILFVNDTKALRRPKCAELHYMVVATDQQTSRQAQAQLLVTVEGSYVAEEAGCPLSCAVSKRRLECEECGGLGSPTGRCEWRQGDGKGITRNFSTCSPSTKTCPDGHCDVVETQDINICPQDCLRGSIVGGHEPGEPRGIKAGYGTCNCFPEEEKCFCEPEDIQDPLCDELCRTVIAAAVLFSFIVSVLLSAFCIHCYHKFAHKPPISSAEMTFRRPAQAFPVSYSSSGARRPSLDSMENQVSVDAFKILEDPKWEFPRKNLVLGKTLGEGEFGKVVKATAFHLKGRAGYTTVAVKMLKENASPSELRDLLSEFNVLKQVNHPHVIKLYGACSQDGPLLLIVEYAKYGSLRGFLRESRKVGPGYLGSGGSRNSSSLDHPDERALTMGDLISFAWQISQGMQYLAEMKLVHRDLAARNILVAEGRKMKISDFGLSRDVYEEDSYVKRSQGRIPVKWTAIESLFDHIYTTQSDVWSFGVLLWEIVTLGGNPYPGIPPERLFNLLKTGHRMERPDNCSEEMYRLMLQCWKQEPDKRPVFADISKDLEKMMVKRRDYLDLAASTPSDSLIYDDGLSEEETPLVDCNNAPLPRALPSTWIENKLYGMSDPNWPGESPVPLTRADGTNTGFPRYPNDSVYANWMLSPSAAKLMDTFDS

SMILES | %-inhibition of RET(M918T) ([1]; kinase RET(M918T), 1 μM) | %-inhibition of PKCζ ([2]; kinase PKCζ, 1 μM) | %-inhibition of IKKε ([3]; kinase IKKε, compound at 1 μM) | %-inhibition of PHKG1 ([4]; kinase PHKG1, 1 μM) | %-inhibition of PIM2 ([5]; kinase PIM2, 1 μM) | %-inhibition of MRCKα ([6]; kinase MRCKα, 1 μM) | %-inhibition of SLK ([7]; kinase SLK, 1 μM) | %-inhibition of HIPK4 ([8]; kinase HIPK4, compound at 1 μM) | %-inhibition of RET(M918T) ([1]; 1 µM) | %-inhibition of PKCζ ([2]; 1 µM) | %-inhibition of IKKε ([3]; 1 µM) | %-inhibition of PHKG1 ([4]; 1 µM) | %-inhibition of MRCKα ([6]; 1 µM) | %-inhibition of HIPK4 ([8]; 1 µM) | %-inhibition of SLK ([7]; 1 µM) | %-inhibition of PIM2 ([5]; 1 µM)
COc1cc(Nc2c(C#N)cnc3cc(OCCCN4CCN(C)CC4)c(OC)cc23)c(Cl)cc1Cl [bosutinib] | 93% | 14% | 4.39% | 49% | -12% | – | – | – | – | – | – | – | – | – | – | –
COc1cc2nccc(Oc3ccc(NC(=O)C4(C(=O)Nc5ccc(F)cc5)CC4)cc3)c2cc1OC [cabozantinib] | – | 4% | -7.58% | 53% | -12% | 0.575% | 52% | – | – | – | – | – | – | – | – | –
C[C@@H](Oc1cc(-c2cnn(C3CCNCC3)c2)cnc1N)c1c(Cl)ccc(F)c1Cl [crizotinib] | – | 9% | 7.49% | 2.74% | -5.28% | -8% | – | 31% | – | – | – | – | – | – | – | –
CC(C)(C)c1nc(-c2cccc(NS(=O)(=O)c3c(F)cccc3F)c2F)c(-c2ccnc(N)n2)s1 [dabrafenib] | 37% | 5% | 15% | -0.59% | 0.238% | -1.84% | 12% | 92% | – | – | – | – | – | – | – | –
Cc1nc(Nc2ncc(C(=O)Nc3c(C)cccc3Cl)s2)cc(N2CCN(CCO)CC2)n1 [dasatinib] | – | – | – | – | 5% | – | – | – | – | – | – | – | – | – | – | –
C#Cc1cccc(Nc2ncnc3cc(OCCOC)c(OCCOC)cc23)c1 [erlotinib] | – | – | – | – | – | – | – | – | 67% | 7% | 5% | 5% | -6% | 37% | 89% | 9%
CO[C@H]1C[C@@H]2CC[C@@H](C)[C@@](O)(O2)C(=O)C(=O)N2CCCC[C@H]2C(=O)O[C@H]([C@H](C)C[C@@H]2CC[C@@H](OCCO)[C@H](OC)C2)CC(=O)[C@H](C)/C=C(\C)[C@@H](O)[C@@H](OC)C(=O)[C@H](C)C[C@H](C)/C=C/C=C/C=C/1C [everolimus] | -4.61% | 5% | -10% | 0.522% | -7% | -6% | -2.67% | -6.34% | – | – | – | – | – | – | – | –
O=S(=O)(c1cccc2cnccc12)N1CCCNCC1 [fasudil] | – | 7.57% | -1.77% | 2.6% | -1.66% | -2.54% | 4.5% | -0.779% | – | – | – | – | – | – | – | –
CS(=O)(=O)CCNCc1ccc(-c2ccc3ncnc(Nc4ccc(OCc5cccc(F)c5)c(Cl)c4)c3c2)o1 [lapatinib] | – | 0% | -5% | 4.72% | 0.254% | – | – | 9% | -4.37% | – | – | – | -2.49% | – | 10% | –
Cc1cn(-c2cc(NC(=O)c3ccc(C)c(Nc4nccc(-c5cccnc5)n4)c3)cc(C(F)(F)F)c2)cn1 [nilotinib] | – | 5.32% | -2.79% | -8% | 7% | -13% | -41% | 37% | 0.118% | – | – | – | – | – | – | –
Cc1ccc(Nc2nccc(N(C)c3ccc4c(C)n(C)nc4c3)n2)cc1S(N)(=O)=O [pazopanib] | 86% | -0.674% | 0% | 1.52% | -4% | -2.17% | 28% | 22% | – | – | – | – | – | – | – | –
Cc1ccc(C(=O)Nc2ccc(CN3CCN(C)CC3)c(C(F)(F)F)c2)cc1C#Cc1cnc2cccnn12 [ponatinib] | 101% | 14% | -9% | 5% | 3.41% | -0.575% | – | 96% | – | – | – | – | – | – | – | –
CNC(=O)c1cc(Oc2ccc(NC(=O)Nc3ccc(Cl)c(C(F)(F)F)c3)c(F)c2)ccn1 [regorafenib] | – | 5% | -7% | 8% | -9% | -5% | 29% | 100% | 102% | – | – | – | – | – | – | –
N#CC[C@H](C1CCCC1)n1cc(-c2ncnc3[nH]ccc23)cn1 [ruxolitinib] | – | -9% | 15% | – | -4% | 0.766% | 7% | – | – | – | – | 50% | – | 3% | – | –
CCN(CC)CCNC(=O)c1c(C)[nH]c(/C=C2\C(=O)Nc3ccc(F)cc32)c1C [sunitinib] | – | – | – | 95% | – | – | – | – | – | – | – | – | – | – | – | –
COc1cc2c(Nc3ccc(Br)cc3F)ncnc2cc1OCC1CCN(C)CC1 [vandetanib] | – | 1.3% | -6.49% | 68% | -6.49% | -6% | 90% | 20% | – | – | – | – | – | – | – | –
